How the values were obtained:
[1] = tested on: recombinant A/WSN/33(H1N1) with PA I38N substitution; settings: ref [3],[9]; cited from earlier work
[2] = tested on: recombinant A/Victoria/3/75(H3N2) with PA I38N substitution; settings: ref [3],[9]; cited from earlier work
[3] = target: NA (neuraminidase) of A/Yamagata/103/2024 (Influenza A virus, UniProt C3W5S3); format: biochemical
[4] = target: NA (neuraminidase) of A/Yamagata/333/2023 (Influenza A virus, UniProt C3W5S3)

Row | Structure (SMILES) | fold reduction in baloxavir susceptibility conferred by PA I38N substitution [1] [fold] | fold reduction in baloxavir susceptibility conferred by PA I38N substitution [2] [fold] | IC50 [3] [pM] | IC50 [4] [pM]
1 | O=C1c2c(O)c(=O)ccn2N([C@@H]2c3ccccc3SCc3c2ccc(F)c3F)[C@@H]2COCCN12 [Baloxavir, baloxavir acid] | 24 | 10 |  | 
2 | CCC(CC)[C@H](NC(C)=O)[C@@H]1[C@H](O)[C@@H](C(=O)O)C[C@H]1N=C(N)N [Peramivir, peramivir] |  |  | 110 | 80

From publication PMC12044245 (Emerging Infectious Diseases, 2025)
